Where a name gives a salt, the structure may show the parent alone.
Tests used:
IKK [1] = molecular target: T1, IKK (Homo sapiens, UniProt O14920+O15111); experiment: IKK activation in stimulated cells (immune complex kinase assay); assay type: cell-based; conditions: FIG. 2D
T1 construct: host or cells: HeLa cells (inferred)
Description: Luciferase gene reporter assay and Kinase assays of IKK: HeLa cells were transfected with the reporter plasmids described above using Lipofectin (GIBCO BRL). After 24-48 hr, the luciferase activity was determined using the Luciferase Assay System (Promega). The kinase activity of IKKα and IKKβ were analyzed by immune complex kinase assay as described previously (Oka, S., Kamata, H., Kamata, K., Yagisawa, H. and Hirata, H. (2000) FEBS Lett. 472, 196-202). The substrates was using GST-IκBα(1-55) or GST-p65(399-551).
In order to find out the mechanism of NF-κB suppression by cPrG-HCl, the effect on the signal transduction system, which functions upstream of NF-κB, was analyzed. First, the effect of cPrG-HCl on IKK activity was examined. […] Next, the effect of cPrG-HCl on phosphorylation and degradation of IκB was analyzed by Western blotting using anti-IκB antibody (FIG. 2E). In FIG. 2E, black arrows indicate IκBα and white arrows indicate phosphorylated IκBα. […] Namely, cPrG-HCl suppressed NF-κB activation without suppressing the steps up to IκB degradation. Accordingly, nuclear translocation of NF-κB was analyzed by Western blotting using p65 and p50 which are components of NF-κB (FIG. 2F). […] Further, the state of NF-κB activation in the nucleus was analyzed by EMSA (electrophoretic mobility shift assay) (FIG. 2G). In FIG. 2G, “n. s.” means nonspecific band.

HeLa cells = experiment: Cell viability by trypan blue dye exclusion assay; assay type: cell-based; conditions: FIG. 1A
Description: Cell culture: HeLa cells were cultured in Dulbecco's modified Eagle's medium supplemented with 10% fetal bovine serum and 50 μg/ml kanamycin at 37° C. in 5% CO2 in air.
Assay for apoptotic processes: Cell viability was determined by dye exclusion assay using 0.1% trypan blue. DNA fragmentation was analyzed as described previously (Kawauchi, K. et al. (1997) Biochem. Biophys. Res. Commun. 237, 543-547). In the caspase-3 assay, cells were disrupted by freeze-thaw in an extraction buffer (50 mM Tris-HCl, pH7.4, 1 mM EGTA, 5 mM EDTA, 5 mM MgCl2, 1 mM APMSF, 10 μg/ml pepstatin, 10 μg/ml leupeptin, and 1 mM DTT). Then the suspension was centrifuged at 15,000 rpm for 20 min, and the supernatants obtained were incubated at 37° C. for 60 min in a reaction buffer (50 mM Tris-HCl, pH7.4, 1 mM EDTA, 10 mM EGTA) with 20 μM of the fluorogenic substrate DEVD-AFC (Peptide Institute, Inc., Japan). Cleavage of the substrates was quantified by measuring the fluorescence of 7-amino-4-trifluomethyl coumarin released using a spectrofluorometer (Shimadzu RF5000) with excitation at 380 mn and emission at 460 nm.

JNK = conditions: earlier abstract of the inventors (Kamata et al., 2000); cited from earlier work
IKK [2] = molecular target: T1, IKK; conditions: earlier abstract of the inventors (Kamata et al., 2000); cited from earlier work
AP-1 = experiment: EMSA of AP-1 DNA binding activity; assay type: cell-based
Description: In addition, in order to reveal the mechanism of the suppression of AP-1 transcriptional activation, the effect of cPrG-HCl on upstream kinases, i.e., JNK and p38, was analyzed. Further, relationship between the suppression of AP-1 transcriptional activation by cPrG-HCl and the acidification of intracellular pH was studied.

T1 sequence (O15111 whole entry): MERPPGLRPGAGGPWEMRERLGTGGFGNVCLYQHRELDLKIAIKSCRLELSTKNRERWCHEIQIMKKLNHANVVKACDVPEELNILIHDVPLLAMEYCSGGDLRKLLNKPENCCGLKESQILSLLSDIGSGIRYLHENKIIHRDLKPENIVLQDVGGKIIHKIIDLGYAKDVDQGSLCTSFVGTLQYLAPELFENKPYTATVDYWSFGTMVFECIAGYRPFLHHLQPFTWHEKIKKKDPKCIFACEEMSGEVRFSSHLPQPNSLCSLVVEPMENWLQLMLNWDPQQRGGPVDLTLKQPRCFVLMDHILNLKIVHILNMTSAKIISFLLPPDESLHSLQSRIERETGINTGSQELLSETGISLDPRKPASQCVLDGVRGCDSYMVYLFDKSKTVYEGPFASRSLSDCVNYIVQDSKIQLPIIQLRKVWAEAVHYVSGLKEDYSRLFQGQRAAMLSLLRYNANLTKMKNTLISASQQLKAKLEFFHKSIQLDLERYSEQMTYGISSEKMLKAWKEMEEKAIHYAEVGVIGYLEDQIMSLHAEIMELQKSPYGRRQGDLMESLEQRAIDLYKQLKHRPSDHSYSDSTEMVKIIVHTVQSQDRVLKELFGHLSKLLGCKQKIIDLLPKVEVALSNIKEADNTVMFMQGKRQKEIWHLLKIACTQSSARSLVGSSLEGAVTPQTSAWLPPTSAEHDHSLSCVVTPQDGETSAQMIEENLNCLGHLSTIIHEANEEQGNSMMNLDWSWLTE
T1 sequence (O14920 whole entry): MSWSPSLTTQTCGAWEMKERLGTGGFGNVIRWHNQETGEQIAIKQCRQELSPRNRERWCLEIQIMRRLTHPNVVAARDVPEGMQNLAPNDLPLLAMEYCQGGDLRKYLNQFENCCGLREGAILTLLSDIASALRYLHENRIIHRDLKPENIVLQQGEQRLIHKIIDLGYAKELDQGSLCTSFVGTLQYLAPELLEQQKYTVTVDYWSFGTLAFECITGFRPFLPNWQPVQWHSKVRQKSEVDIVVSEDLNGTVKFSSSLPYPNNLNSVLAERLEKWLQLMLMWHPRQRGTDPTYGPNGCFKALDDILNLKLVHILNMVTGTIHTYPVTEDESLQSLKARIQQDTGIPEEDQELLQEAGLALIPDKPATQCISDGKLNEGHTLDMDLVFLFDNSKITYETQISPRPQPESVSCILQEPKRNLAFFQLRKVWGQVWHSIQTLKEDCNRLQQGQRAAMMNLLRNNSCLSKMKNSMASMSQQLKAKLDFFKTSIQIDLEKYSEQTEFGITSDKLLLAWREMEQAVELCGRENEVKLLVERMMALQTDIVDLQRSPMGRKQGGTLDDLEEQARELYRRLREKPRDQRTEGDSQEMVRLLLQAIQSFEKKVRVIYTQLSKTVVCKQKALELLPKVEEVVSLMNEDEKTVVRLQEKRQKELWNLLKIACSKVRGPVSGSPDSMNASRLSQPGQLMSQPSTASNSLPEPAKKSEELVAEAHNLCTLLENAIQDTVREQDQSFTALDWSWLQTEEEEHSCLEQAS
T1 sequence (Q9Y6K9 whole entry partner): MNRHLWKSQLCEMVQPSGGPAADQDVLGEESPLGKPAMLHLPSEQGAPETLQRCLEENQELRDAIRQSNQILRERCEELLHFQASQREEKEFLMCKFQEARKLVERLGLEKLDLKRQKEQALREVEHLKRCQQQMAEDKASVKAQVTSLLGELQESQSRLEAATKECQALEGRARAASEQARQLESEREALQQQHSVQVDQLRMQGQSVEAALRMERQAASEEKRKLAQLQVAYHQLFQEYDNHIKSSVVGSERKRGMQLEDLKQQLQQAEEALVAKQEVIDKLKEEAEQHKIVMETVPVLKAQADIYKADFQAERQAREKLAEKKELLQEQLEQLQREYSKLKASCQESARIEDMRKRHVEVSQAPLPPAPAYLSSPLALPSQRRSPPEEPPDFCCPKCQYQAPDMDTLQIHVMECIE

COC1=CC(c2ccc[nH]2)=N/C1=C\c1[nH]c(C)c2c1C(C)CCC2 (stereo not drawn) [cPrG-HCl, Cycloprodigiosin hydrochloride]
TNFα-induced IKK activation (IKK [1]): did not suppressed | cell viability (HeLa cells; cPrG-HCl present upon TNFα stimulation): about 65% | cell viability (HeLa cells; cPrG-HCl treatment alone): slightly decreased | JNK activation (JNK): no suppressive effect | IKK activation (IKK [2]): no suppressive effect | DNA binding activity of AP-1 (AP-1): no inhibitory effect

Source: patent publication US20040048791A1, “Method for treating neoplastic cells using cycloprodigiosin or salt thereof” (priority 2002, published 2004)
